Assay results from US20250320207A1, “Ketal Protected Intermediate for Sonrotoclax and Preparation Method Thereof” (priority 2022, published 2025).

Description: The sample was tested by GC (carrier gas: N2) and HPLC (Column: Waters Xselect HSS T3 (150 mm*4.6 mm, 3.5 um) P/N: 186004786; mobile phase 0.05% TFA in water, ACN:MeOH=1:1, v/v; Flow: 1 ml/min; Temperature: 30° C.).

Question: Which “storage stability (result in words)” value does the source give for `C1COC2(CC3(CCNCC3)C2)OC1.Cl` [1,5-dioxa-11-azadispiro[5.1.5.1]tetradecane hydrogen chloride] here?
Answer: stable enough

Question: And the “Product, Impurity profile (RRT, Area %), RRT 1.00” value (stored at 2-8° C. for 3.5 months, double layered LDPE bag with desiccant inside heat-sealed aluminum foil bag, GC and HPLC)?
Answer: 99.90 Area %
